Assay results taken from ChEMBL document CHEMBL4229450, “The synthetic chalcone derivative 2-hydroxy-3',5,5'-trimethoxychalcone induces unfolded protein response-mediated apoptosis in A549 lung cancer cells” (Bioorg Med Chem Lett, 2018).
Active and inactive are the calls of the source. The calls are words filed in the database; no cut-off is given here.

Legend:
A549 [1] = assay: Induction of apoptosis in human A549 cells assessed as late apoptotic cells at 20 uM after 24 hrs by Annexn V-FITC/propidium iodide staining based flow cytometry (reference value: 3%); type: functional
A549 [2] = assay: Induction of ER stress-activated unfolded protein response pathway in human A549 cells assessed as accumulation of GRP78 protein level at 20 uM after 12 hrs by immunoblot analysis; type: functional, cell-based
A549 [3] = assay: Induction of apoptosis in human A549 cells assessed as increase in cleaved caspase-7 expression at 20 uM pre-treated with pan-caspase inhibitor zVAD-FMK fopr 30 mins before compound incubation for 12 hrs by immunoblot analysis; type: functional, cell-based
A549 [4] = assay: Induction of apoptosis in human A549 cells assessed as increase in cleaved PARP expression at 20 uM after 12 hrs by immunoblot analysis; type: functional, cell-based
A549 [5] = assay: Induction of ER stress-activated unfolded protein response pathway in human A549 cells assessed as increase in IRE1alpha-mediated splicing of XBP1 mRNA by measuring increase in 540-base pair fragments at 20 uM after 12 hrs by RT-PCR analysis; type: functional, cell-based
A549 [6] = assay: Induction of apoptosis in human A549 cells assessed as nuclear condensation and fragmentation at 20 uM after 18 hrs by Alexa Fluor-488/Hoechst 33258 staining based fluorescence microscopic method; type: functional, cell-based
A549 [7] = assay: Induction of ER stress-activated unfolded protein response pathway in human A549 cells assessed as increase in Bim expression at 20 uM after 12 hrs by immunoblot analysis; type: functional, cell-based
A549 [8] = assay: Growth inhibition of human A549 cells assessed as cell viability at 20 uM after 24 hrs by CCK8 assay relative to control; type: functional; conditions: A549, 24 h, read-out: Activity
A549 [9] = assay: Induction of ER stress-activated unfolded protein response pathway-mediated apoptosis in human A549 cells assessed as increase in cleaved caspase-7 expression at 20 uM pre-treated with stress inhibitor 4-PBA before compound addition by immunoblot analysis; type: functional, cell-based
A549 [10] = assay: Cell cycle arrest in human A549 cells assessed as accumulation at G1 phase at 20 uM after 24 hrs by propidium iodide staining based flow cytometry (reference value: 57%); type: functional
A549 [11] = assay: Induction of apoptosis in human A549 cells assessed as live cells at 20 uM after 24 hrs by Annexn V-FITC/propidium iodide staining based flow cytometry (reference value: 83%); type: functional
A549 [12] = assay: Induction of apoptosis in human A549 cells assessed as early apoptotic cells at 20 uM after 24 hrs by Annexn V-FITC/propidium iodide staining based flow cytometry (reference value: 5%); type: functional
A549 [13] = assay: Anticlonogenic activity against human A549 cells at 20 uM after 7 days by crystal violet staining based assay; type: functional, cell-based
A549 [14] = assay: Induction of ER stress-activated unfolded protein response pathway in human A549 cells assessed as accumulation of IRE1alpha protein level at 20 uM after 12 hrs by immunoblot analysis; type: functional, cell-based
A549 [15] = assay: Growth inhibition of human A549 cells assessed as cell viability at 5 uM after 24 hrs by CCK8 assay relative to control; type: functional; conditions: A549, 24 h, read-out: Activity
A549 [16] = assay: Induction of ER stress-activated unfolded protein response pathway in human A549 cells assessed as increase in IRE1alpha-mediated splicing of XBP1 mRNA by measuring increase in 540-base pair fragments at 20 uM within 3 hrs by RT-PCR analysis; type: functional, cell-based
A549 [17] = assay: Induction of ER stress-activated unfolded protein response pathway in human A549 cells assessed as increase in ATF4 expression at 20 uM after 6 hrs by immunoblot analysis; type: functional, cell-based
A549 [18] = assay: Induction of apoptosis in human A549 cells assessed as increase in cleaved PARP expression at 20 uM pre-treated with pan-caspase inhibitor zVAD-FMK fopr 30 mins before compound incubation for 12 hrs by immunoblot analysis; type: functional, cell-based
NCI-H1299 = assay: Anticlonogenic activity against human NCI-H1299 cells at 20 uM after 7 days by crystal violet staining based assay; type: functional, cell-based
[19] = target: T1, Eukaryotic translation initiation factor 2-alpha kinase 3 (Homo sapiens) (UniProt Q9NZJ5); assay: Induction of ER stress-activated unfolded protein response pathway in human A549 cells assessed as increase in PERK phosphorylation at Thr981 residue at 20 uM up to 6 hrs by immunoblot analysis; type: cell-based
T1 sequence (whole entry): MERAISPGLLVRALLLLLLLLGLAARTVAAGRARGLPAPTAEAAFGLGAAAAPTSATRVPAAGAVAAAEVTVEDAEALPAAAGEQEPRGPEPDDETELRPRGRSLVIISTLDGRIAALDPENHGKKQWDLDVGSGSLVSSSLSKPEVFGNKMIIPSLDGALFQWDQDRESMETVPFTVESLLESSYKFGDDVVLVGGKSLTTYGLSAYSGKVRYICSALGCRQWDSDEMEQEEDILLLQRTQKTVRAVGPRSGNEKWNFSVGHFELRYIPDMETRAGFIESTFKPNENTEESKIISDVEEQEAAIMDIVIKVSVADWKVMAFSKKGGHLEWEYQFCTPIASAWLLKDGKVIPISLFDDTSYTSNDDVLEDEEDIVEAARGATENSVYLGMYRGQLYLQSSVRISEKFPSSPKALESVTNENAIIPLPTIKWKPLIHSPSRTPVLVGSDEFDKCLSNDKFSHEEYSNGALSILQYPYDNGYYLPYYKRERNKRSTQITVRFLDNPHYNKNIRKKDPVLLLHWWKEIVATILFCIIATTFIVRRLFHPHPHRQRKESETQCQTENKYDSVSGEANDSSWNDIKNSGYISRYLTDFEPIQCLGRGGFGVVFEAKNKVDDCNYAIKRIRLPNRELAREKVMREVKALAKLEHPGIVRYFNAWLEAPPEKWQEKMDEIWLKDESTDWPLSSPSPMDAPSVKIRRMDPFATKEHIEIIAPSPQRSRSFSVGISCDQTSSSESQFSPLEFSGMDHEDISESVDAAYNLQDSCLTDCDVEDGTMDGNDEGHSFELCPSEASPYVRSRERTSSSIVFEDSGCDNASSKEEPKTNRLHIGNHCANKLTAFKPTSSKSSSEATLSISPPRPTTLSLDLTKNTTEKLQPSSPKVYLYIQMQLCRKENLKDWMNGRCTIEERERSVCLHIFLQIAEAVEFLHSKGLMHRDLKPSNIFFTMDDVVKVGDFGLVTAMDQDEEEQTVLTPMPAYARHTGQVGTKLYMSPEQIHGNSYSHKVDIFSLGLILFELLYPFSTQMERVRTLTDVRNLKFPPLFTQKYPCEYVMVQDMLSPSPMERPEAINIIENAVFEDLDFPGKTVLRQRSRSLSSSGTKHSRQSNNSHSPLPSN

A549 [20] = assay: Induction of ER stress-activated unfolded protein response pathway-mediated apoptosis in human A549 cells assessed as increase in cleaved PARP expression at 20 uM pre-treated with stress inhibitor 4-PBA before compound addition by immunoblot analysis; type: functional, cell-based
A549 [21] = assay: Induction of ER stress-activated unfolded protein response pathway in human A549 cells harboring pFA-CHOP-GAL4/p-GAL4-DBD-Luc assessed as increase in CHOP trans-acting activity after 12 hrs by luciferase reporter gene assay; type: functional, cell-based
A549 [22] = assay: Induction of apoptosis in human A549 cells assessed as increase in cleaved caspase-7 expression at 20 uM after 18 hrs by Alexa Fluor-488/Hoechst 33258 staining based fluorescence microscopic method; type: functional, cell-based
A549 [23] = assay: Induction of apoptosis in human A549 cells assessed as increase in cleaved caspase-9 expression at 20 uM after 12 hrs by immunoblot analysis; type: functional, cell-based
A549 [24] = assay: Induction of apoptosis in human A549 cells assessed as necrotic cells at 20 uM after 24 hrs by Annexn V-FITC/propidium iodide staining based flow cytometry (reference value: 10%); type: functional
A549 [25] = assay: Induction of apoptosis in human A549 cells assessed as increase in cleaved caspase-7 expression at 20 uM after 12 hrs by immunoblot analysis; type: functional, cell-based
A549 [26] = assay: Cell cycle arrest in human A549 cells assessed as accumulation at sub-G1 phase at 20 uM after 24 hrs by propidium iodide staining based flow cytometry (reference value: 2 to 2.3%); type: functional
A549 [27] = assay: Induction of ER stress-activated unfolded protein response pathway in human A549 cells assessed as increase in IRE1alpha-mediated splicing of XBP1 mRNA by measuring increase in 279-/261-base pair fragments at 20 uM within 3 hrs by RT-PCR analysis; type: functional, cell-based
A549 [28] = assay: Induction of ER stress-activated unfolded protein response pathway in human A549 cells assessed as increase in IRE1alpha-mediated splicing of XBP1 by measuring increase in XBP1 (56 kDa) level at 20 uM after 6 to 12 hrs by immunoblot analysis; type: functional, cell-based
A549 [29] = assay: Cell cycle arrest in human A549 cells assessed as accumulation at G2/M phase at 20 uM after 24 hrs by propidium iodide staining based flow cytometry (reference value: 14.8 to 15%); type: functional
MCF-12A = assay: Induction of apoptosis in human MCF12A cells assessed as increase in cleaved PARP expression at 20 uM after 12 hrs by immunoblot analysis; type: cell-based
NCI-H460 = assay: Anticlonogenic activity against human NCI-H460 cells at 20 uM after 7 days by crystal violet staining based assay; type: functional, cell-based
MDA-MB-231 = assay: Induction of apoptosis in human MDA-MB-231 cells assessed as increase in cleaved PARP expression at 20 uM after 12 hrs by immunoblot analysis; type: functional, cell-based
A549 [30] = assay: Induction of ER stress-activated unfolded protein response pathway in human A549 cells assessed as increase in IRE1alpha-mediated splicing of XBP1 mRNA by measuring increase in 540-base pair fragments at 20 uM after 24 hrs by RT-PCR analysis; type: functional, cell-based
A549 [31] = assay: Induction of apoptosis in human A549 cells assessed as disruption of microtubule organization at 20 uM after 18 hrs by Alexa Fluor-488/Hoechst 33258 staining based fluorescence microscopic method; type: functional, cell-based
A549 [32] = assay: Cell cycle arrest in human A549 cells assessed as accumulation at S phase at 20 uM after 24 hrs by propidium iodide staining based flow cytometry (reference value: 25.6 to 26%); type: functional
A549 [33] = assay: Growth inhibition of human A549 cells assessed as cell viability at 10 uM after 24 hrs by CCK8 assay relative to control; type: functional; conditions: A549, 24 h, read-out: Activity
A549 [34] = assay: Induction of ER stress-activated unfolded protein response pathway in human A549 cells assessed as increase in CHOP expression at 20 uM after 6 to 12 hrs by immunoblot analysis; type: functional, cell-based

Activity [19]: Active
Structure (SMILES): COc1cc(/C=C/C(=O)c2cc(OC)ccc2O)cc(OC)c1
Activity (A549 [1]): 16%
Activity (A549 [2]): Active
Activity (A549 [3]): inactive
Activity (A549 [4]): Active
Activity (A549 [5]): Active
Activity (A549 [6]): Active
Activity (A549 [7]): Active
viability at 20 µM (A549 [8]): 50.8%
Activity (A549 [9]): Active
Activity (A549 [10]): 29.8 - 30%
Activity (A549 [11]): 56%
Activity (A549 [12]): 18%
Activity (A549 [13]): Active
Activity (A549 [14]): Active
viability at 5 µM (A549 [15]): 90.1%
Activity (A549 [16]): Active
Activity (A549 [17]): Active
Activity (A549 [18]): inactive
Activity (NCI-H1299): Active
Activity (A549 [20]): Active
Activity (A549 [21]): Dose-dependent effect
Activity (A549 [22]): Active
Activity (A549 [23]): Active
Activity (A549 [24]): 9%
Activity (A549 [25]): Active
Activity (A549 [26]): 29.6 - 30%
Activity (A549 [27]): Active
Activity (A549 [28]): Active
Activity (A549 [29]): 14 - 14.1%
Activity (MCF-12A): Non-Toxic
Activity (NCI-H460): Active
Activity (MDA-MB-231): Active
Activity (A549 [30]): inactive
Activity (A549 [31]): Active
Activity (A549 [32]): 26 - 26.5%
viability at 10 µM (A549 [33]): 83.9%
Activity (A549 [34]): Active
